# Measured values published in US20240025906A1 (NEURON23, INC., priority 2022, published 2024).
# Where two headings read alike, the source gives them in different places.
# What was measured:
# TYK2 JH2 = target: T1, TYK2 JH2 (Homo sapiens, UniProt P29597); test: TYK2 JH2 binding assay (KINOMEscan KdELECT competitive binding); conditions: TYK2 JH2 domain
# T1 construct: purchased DiscoverX (KINOMEscan KdELECT service); host or cells: E. coli BL21-derived (T7 phage display) or HEK-293
# In short: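 Competition binding, KdELECT format. Kinase (phage-tagged, E. coli BL21-derived host; or HEK-293, DNA-tagged) + ligand-coated streptavidin beads + cpd, 1 h RT, final DMSO 0.9%. Wash, elute 30 min with 0.5 μM non-biotinylated ligand; qPCR readout. Kd: 11-pt, 3-fold series.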
# [1] = tested on: JAK1/TYK2 pSTAT5 (Tyr694/699) in THP-1 cell line; test: IFNa-stimulated JAK1/TYK2 pSTAT5 (Tyr694/699) inhibition cellular assay, AlphaLISA; assay type: cell-based; conditions: Homo sapiens, THP-1 cells, AlphaLISA (Assay B)
# In short: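 THP-1 cells (2e4/well in HBSS) were preincubated with compound (8 points, 6-fold steps from 10000 nM final) for 1 h at 37 °C, then stimulated with IFNa (added at 100 ng/mL) for 30 min. Lysate pSTAT5 was read by AlphaLISA at 615 nm. IC50 came from a 4-parameter fit with bottom 0 and Hill −1.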
# [2] = KINOMEscan KdELECT (Assay A), read-out: Biochemical TYK2_DiscoverX_JH2_BND_Kd
# [3] = IFNa-stimulated, read-out: Cellular_THP1_IFNa-pSTATS_TYK2
# [4] = KINOMEscan KdELECT (Assay A), read-out: Biochemical TYK2_JH2_Kd
# [5] = IFNa-stimulated, read-out: Cellular THP1_IFNa-pSTATS_IC50
# [6] = DiscoverX KINOMEscan KdELECT (Assay A), read-out: Biochemical TYK2_DiscoverX_JH2_BND_Kd
# [7] = IFNa-stimulated pSTAT5 (Tyr694/699), read-out: Cellular_THP1_IFNa-pSTATS_TYK2
# T1 sequence (P29597 589-875 limits assumed): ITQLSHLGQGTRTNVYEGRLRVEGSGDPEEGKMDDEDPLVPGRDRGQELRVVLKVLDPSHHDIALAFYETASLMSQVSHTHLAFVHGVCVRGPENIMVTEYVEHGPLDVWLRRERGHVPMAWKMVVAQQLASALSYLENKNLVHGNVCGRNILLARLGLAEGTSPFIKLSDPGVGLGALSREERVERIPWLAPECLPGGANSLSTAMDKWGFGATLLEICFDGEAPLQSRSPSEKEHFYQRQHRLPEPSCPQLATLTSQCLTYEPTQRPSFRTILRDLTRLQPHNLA
Kd (TYK2 JH2; [2]) [nM],"IC50 [1, 3] [nM]",Kd (TYK2 JH2; [6]) [nM],Compound,other results
≤ 100,≤ 500,–,"CNc1ncc(C#Cc2ccc3c(cnn3C)c2)c2cc(NC(=O)C3CC3)ncc12 [Example 649, N-(5-((1-methyl-1H-indazol-5-yl)ethynyl)-8-(methylamino)-2,7-naphthyridin-3-yl)cyclopropanecarboxamide]",–
≤ 100,≤ 500,–,"CNc1ncc(C#Cc2ncc(OC)cc2CF)c2cc(NC(=O)C3CC3)ncc12 [Example 963, N-[5-[2-[3-(fluoromethyl)-5-methoxy-2-pyridyl]ethynyl]-8-(methylamino)-2,7-naphthyridin-3-yl]cyclopropanecarboxamide]",–
≤ 100,> 500,–,"CNc1ncc(-c2nc3c(o2)CCC(C(F)(F)F)C3)c2cc(NC(=O)C3CC3)ncc12 (centres unmarked) [Example 855, N-(8-(methylamino)-5-(5-(trifluoromethyl)-4,5,6,7-tetrahydrobenzo[d]oxazol-2-yl)-2,7-naphthyridin-3-yl)cyclopropanecarboxamide]",–
≤ 100,≤ 500,–,"CNc1ncc(C#Cc2ccc3c(c2)nc(C)n3C(F)F)c2cc(NC(=O)C3CC3)ncc12 [Example 764, A-(5-((1-(difluoromethyl)-2-methyl-1H-benzo[d]imidazol-5-yl)ethynyl)-8-(methylamino)-2,7-naphthyridin-3-yl)cyclopropanecarboxamide]",–
–,≤ 500,≤ 100,"CNc1ncc(-c2nc3cc(N4CCOCC4)ccc3o2)c2cc(NC(=O)NC3CC3)ncc12 [Example 450, 1-cyclopropyl-3-(8-(methylamino)-5-(5-morpholinobenzo[d]oxazol-2-yl)-2,7-naphthyridin-3-yl)urea]",–
≤ 100,≤ 500,–,"CNc1ncc(C#Cc2ccc3c(c2)OCC(CO)O3)c2cc(NC(=O)C3CC3)ncc12 (centres unmarked) [Example 696, N-(5-((2-(hydroxymethyl)-2,3-dihydrobenzo[b][1,4]dioxin-6-yl)ethynyl)-8-(methylamino)-2,7-naphthyridin-3-yl)cyclopropanecarboxamide]",–
≤ 100,–,–,"CNc1ncc(-c2nc3ccc(N4CCOCC4)cn3n2)c2cc(NC(=O)[C@H]3CC3(F)F)ncc12 (single isomer, unassigned) [Example 1141]","IC50 [1, 7]: ≤ 500 nM"
–,≤ 500,≤ 100,"CCNc1ncc(-c2nc3cc(N4CC5CN(C)CC(C4)O5)ccc3o2)c2cc(NC(=O)C3CC3)ncc12 [Example 457, N-(8-(ethylamino)-5-(5-(7-methyl-9-oxa-3,7-diazabicyclo[3.3.1]nonan-3-yl)benzo[d]oxazol-2-yl)-2,7-naphthyridin-3-yl)cyclopropanecarboxamide]",–
≤ 100,≤ 500,–,"CNc1ncc(C#Cc2cc3ccccn3n2)c2cc(NC(=O)C3CC3)ncc12 [Example 680, N-(8-(methylamino)-5-(pyrazolo[1,5-a]pyridin-2-ylethynyl)-2,7-naphthyridin-3-yl)cyclopropanecarboxamide]",–

# Continued, compound first:
Compound,Kd (TYK2 JH2; [2]) [nM],"IC50 [1, 3] [nM]",Kd (TYK2 JH2; [6]) [nM],other results
"CNc1ncc(C)c2cc(NC(=O)C3CC3)ncc12 [Example 27, N-(5-methyl-8-(methylamino)-2,7-naphthyridin-3-yl)cyclopropanecarboxamide]",–,–,–,"Kd (TYK2 JH2; [4]): ≤ 100 nM; IC50 [1, 5]: > 500 nM"
"CNc1ncc(C#Cc2ccc3nc(COC)sc3c2)c2cc(NC(=O)C3CC3)ncc12 [Example 725, N-(5-((2-(methoxymethyl)benzo[d]thiazol-6-yl)ethynyl)-8-(methylamino)-2,7-naphthyridin-3-yl)cyclopropanecarboxamide]",≤ 100,≤ 500,–,–
"CNc1ncc(-c2nc3cc(N4C[C@@H](C)O[C@H](C)C4)ccc3o2)c2cc(NC(=O)C3CC3)ncc12 (racemic) [Example 316, N-(5-(5-(2,6-dimethylmorpholino)benzo[d]oxazol-2-y1)-8-(methylamino)-2,7-naphthyridin-3-yl)cyclopropanecarboxamide (trans racemate)]",–,≤ 500,≤ 100,–
"CNc1ncc(-c2nc(C)co2)c2cc(NC(=O)C3CC3)ncc12 [Example 32, N-(8-(methylamino)-5-(4-methyloxazol-2-yl)-2,7-naphthyridin-3-yl)cyclopropanecarboxamide]",–,–,–,"Kd (TYK2 JH2; [4]): ≤ 100 nM; IC50 [1, 5]: ≤ 500 nM"
"CNc1ncc(C#Cc2ccc(N3CCOCC3)cn2)c2cc(NC(=O)C3CC3)ncc12 [Example 951, N-(8-(methylamino)-5-((5-morpholinopyridin-2-yl)ethynyl)-2,7-naphthyridin-3-yl)cyclopropanecarboxamide]",≤ 100,≤ 500,–,–
"[2H]C([2H])([2H])Nc1ncc(-c2nc3ccc(N4CCO[C@H](C)C4)cn3n2)c2cc(NC(=O)C3CC3)ncc12 [Example 512, (R)-N-(8-((methyl-d3)amino)-5-(6-(2-methylmorpholino)-[1,2,4]triazolo[1,5-a]pyridin-2-yl)-2,7-naphthyridin-3-yl)cyclopropanecarboxamide]",–,≤ 500,≤ 100,–
"CNc1ncc(-c2nc3cc(OC4CN(C)C4)ccc3o2)c2cc(NC(=O)C3CC3)ncc12 [Example 198, N-(8-(methylamino)-5-(5-((1-methylazetidin-3-yl)oxy)benzo[d]oxazol-2-yl)-2,7-naphthyridin-3-yl)cyclopropanecarboxamide]",–,≤ 500,≤ 100,–
"CCNc1ncc(-c2nc3cc(N4CCOCC4)ccc3o2)c2cc(NC(=O)C3CC3)ncc12 [Example 458, N-(8-(ethylamino)-5-(5-morpholinobenzo[d]oxazol-2-yl)-2,7-naphthyridin-3-yl)cyclopropanecarboxamide]",–,≤ 500,≤ 100,–
"CNc1ncc(-c2nc3ccc(N4CC(F)C4)cn3n2)c2cc(NC(=O)C3CC3)ncc12 [Example 473, N-(5-(6-(3-fluoroazetidin-1-yl)-[1,2,4]triazolo[1,5-a]pyridin-2-yl)-8-(methylamino)-2,7-naphthyridin-3-yl)cyclopropanecarboxamide]",–,≤ 500,≤ 100,–
"CCc1ccccc1-c1cnc(NC)c2cnc(NC(=O)C3CC3)cc12 [Example 11, N-(5-(2-ethylphenyl)-8-(methylamino)-2,7-naphthyridin-3-yl)cyclopropanecarboxamide]",–,–,–,"Kd (TYK2 JH2; [4]): 100 to 1000 nM; IC50 [1, 5]: > 500 nM"
"CNc1ncc(-c2ccc(OC3CCN(C)CC3)cc2)c2cc(NC(=O)C3CC3)ncc12 [Example 132, N-(8-(methylamino)-5-(4-((1-methylpiperidin-4-yl)oxy)phenyl)-2,7-naphthyridin-3-yl)cyclopropanecarboxamide]",–,–,–,"Kd (TYK2 JH2; [4]): ≤ 100 nM; IC50 [1, 5]: > 500 nM"
"CNc1ncc(Br)c2cc(NC(=O)C3CC3)ncc12 [Example 3, N-(5-bromo-8-(methylamino)-2,7-naphthyridin-3-yl)cyclopropanecarboxamide]",–,–,–,"Kd (TYK2 JH2; [4]): ≤ 100 nM; IC50 [1, 5]: > 500 nM"
"C/C=C/c1cnc(NC)c2cnc(NC(=O)C3CC3)cc12 [Example 129, (E)-N-(8-(methylamino)-5-(prop-1-en-1-yl)-2,7-naphthyridin-3-yl)cyclopropanecarboxamide]",–,–,–,"Kd (TYK2 JH2; [4]): ≤ 100 nM; IC50 [1, 5]: > 500 nM"
"CNc1ncc(-c2cn3cc(N4CCOCC4)ccc3n2)c2cc(NC(=O)C3CC3)ncc12 [Example 880, N-(8-(methylamino)-5-(6-morpholinoimidazo[1,2-a]pyridin-2-yl)-2,7-naphthyridin-3-yl)cyclopropanecarboxamide]",≤ 100,≤ 500,–,–
"CNc1ncc(-c2nc3cc(OC)ccc3o2)c2cc(NC(=O)[C@@H]3C[C@@H]3C(F)(F)F)ncc12 (racemic) [Example 396, N-(5-(5-methoxybenzo[d]oxazol-2-yl)-8-(methylamino)-2,7-naphthyridin-3-yl)-2-(trifluoromethyl)cyclopropane-1-carboxamide]",–,≤ 500,≤ 100,–
"CNc1ncc(C#Cc2nccc3ncsc23)c2cc(NC(=O)C3CC3)ncc12 [Example 1016, N-(8-(methylamino)-5-(thiazolo[5,4-c]pyridin-4-ylethynyl)-2,7-naphthyridin-3-yl)cyclopropanecarboxamide]",≤ 100,–,–,"IC50 [1, 7]: ≤ 500 nM"
"CNc1ncc(/C(C)=C/c2ccccc2)c2cc(NC(=O)C3CC3)ncc12 [Example 118, (E)-N-(8-(methylamino)-5-(1-phenylprop-1-en-2-yl)-2,7-naphthyridin-3-yl)cyclopropanecarboxamide]",–,–,–,"Kd (TYK2 JH2; [4]): ≤ 100 nM; IC50 [1, 5]: ≤ 500 nM"
"CNc1ncc(C#Cc2ccc(-n3ccccc3=O)cc2)c2cc(NC(=O)C3CC3)ncc12 [Example 671, N-(8-(methylamino)-5-((4-(2-oxopyridin-1(2H)-yl)phenyl)ethynyl)-2,7-naphthyridin-3-yl)cyclopropanecarboxamide]",≤ 100,≤ 500,–,–
"CNc1ncc(-c2nc3cc(/C(C)=N\OC)ccc3o2)c2cc(NC(=O)C3CC3)ncc12 [Example 462, (Z)—N-(5-(5-(1-(methoxyimino)ethyl)benzo[d]oxazol-2-yl)-8-(methylamino)-2,7-naphthyridin-3-yl)cyclopropanecarboxamide]",–,≤ 500,≤ 100,–
